Data taken from publication PMC5015447 (Biochemistry, 2016).
Where “and” joins values, the source holds several entries; their conditions need not be identical. Equal entries are not always repeated. Where two headings read alike, the source gives them in different places.

Legend:
[1] = target: E. coli cofactor-dependent phosphoglycerate mutase (dPGM) (Escherichia coli, UniProt P62707); assay: biochemical; type: binding
dPGM R9A [2] = target: T1, dPGM R9A (Escherichia coli, UniProt P62707, R10A); assay: Equilibrium unfolding of dPGM variant R9A with 1.0 mM ATP; type: binding, E. coli
T1 sequence (P62707 whole entry R10A): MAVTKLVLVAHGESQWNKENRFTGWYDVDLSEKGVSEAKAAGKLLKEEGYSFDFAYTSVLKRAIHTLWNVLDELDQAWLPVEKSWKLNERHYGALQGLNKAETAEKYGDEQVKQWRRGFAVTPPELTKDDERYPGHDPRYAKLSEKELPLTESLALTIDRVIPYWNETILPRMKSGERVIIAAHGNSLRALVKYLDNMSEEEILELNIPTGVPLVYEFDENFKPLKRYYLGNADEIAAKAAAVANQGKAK

dPGM K99A [3] = target: T2, dPGM K99A (Escherichia coli, UniProt P62707, K100A); assay: Equilibrium unfolding of dPGM variant K99A with 1.0 mM ATP; type: binding, E. coli
T2 sequence (P62707 whole entry K100A): as the sequence (P62707 whole entry R10A) above, with A10R, K100A counted along it

dPGM R115A [4] = target: T3, dPGM R115A (Escherichia coli, UniProt P62707, R116A); assay: Equilibrium unfolding of dPGM variant R115A with 1.0 mM ATP; type: binding, E. coli
T3 sequence (P62707 whole entry R116A): as the sequence (P62707 whole entry R10A) above, with A10R, R116A counted along it

dPGM R116A [5] = target: T4, dPGM R116A (Escherichia coli, UniProt P62707, R117A); assay: Equilibrium unfolding of dPGM variant R116A with 1.0 mM ATP; type: binding, E. coli
T4 sequence (P62707 whole entry R117A): as the sequence (P62707 whole entry R10A) above, with A10R, R117A counted along it

dPGM K222A [6] = target: T5, dPGM K222A (Escherichia coli, UniProt P62707, K223A); assay: Equilibrium unfolding of dPGM variant K222A; type: binding, E. coli
T5 sequence (P62707 whole entry K223A): as the sequence (P62707 whole entry R10A) above, with A10R, K223A counted along it

Wild-type dPGM = Wild-type dPGM (Escherichia coli, UniProt P62707); assay: ATP binding by isothermal titration calorimetry, wild-type dPGM; design: species or system E. coli
Wild-type dPGM, sequence (P62707 whole entry): as the sequence (P62707 whole entry R10A) above, with A10R counted along it

dPGM R9A [7] = target: T1, dPGM R9A; assay: ATP binding by isothermal titration calorimetry, R9A; design: species or system E. coli
dPGM K99A [8] = target: T2, dPGM K99A; assay: ATP binding by isothermal titration calorimetry, K99A; design: species or system E. coli
dPGM R115A [9] = target: T3, dPGM R115A; assay: ATP binding by isothermal titration calorimetry, R115A; design: species or system E. coli
dPGM R116A [10] = target: T4, dPGM R116A; assay: ATP binding by isothermal titration calorimetry, R116A; design: species or system E. coli
dPGM K222A [11] = target: T5, dPGM K222A; assay: ATP binding by isothermal titration calorimetry, K222A; design: species or system E. coli
[12] = system: cofactor-dependent phosphoglycerate mutase (dPGM); details: cited from earlier work
S. cerevisiae dPGM = details: cited from earlier work
[13] = ligand 1.0 mM, one global fit of all nucleotide data sets
[14] = 50 mM phosphate, global fit with no-ligand data
[15] = 50 mM phosphate, global fit with no-ligand data (shared m-value)

E. coli cofactor-dependent phosphoglycerate mutase (dPGM), sequence (P62707 whole entry): as the sequence (P62707 whole entry R10A) above, with A10R counted along it

## O=P(O)(O)OP(=O)(O)O [Pyrophosphate]
[1]
  Kd: 1.2 ± 0.2 µM
  mI-N: 2.47 (± 0.04) kcal mol^−1M^−1
  mU-I: 1.62 (± 0.09) kcal mol^−1M^−1
  ΔGI-N°: 16.8 (± 0.1) kcal/mol
  ΔGU-I: 5.2 (± 0.3) kcal/mol
  ΔΔGI-N°: 5.3 (± 0.1) kcal/mol

## Nc1ncnc2c1ncn2[C@@H]1O[C@H](COP(=O)(O)O)[C@@H](O)[C@H]1O [AMP, adenosine monophosphate]
[1]; calculated with Eq. 6 from stability increase, ligand 1.0 mM
  Kd: 240 ± 40 µM
[1]; ligand 1.0 mM
  effect on equilibrium unfolding (first unfolding transition): significantly shift the first unfolding transition to higher urea concentrations
  ΔΔGI-N° = ΔGI-N°(ligand) – ΔGI-N°(no ligand): 1.96 (± 0.09) kcal/mol
[1]; [13]
  ΔGI-N°: 13.6 (± 0.1) kcal/mol
  ΔGU-I: 5.5 (± 0.2) kcal/mol

## Nc1ncnc2c1ncn2[C@@H]1O[C@H](COP(=O)(O)OP(=O)(O)OP(=O)(O)O)[C@@H](O)[C@H]1O [ATP, adenosine triphosphate]
[1]
  Kd: 1.5 ± 0.5 µM
[1]; 1.0 µM dPGM, 1.0 mM ATP, native conditions
  effective stability (ΔGeff): 5.4 kcal/mol
[1]; 1.0 mM ATP
  Cm of the single apparent unfolding transition: about 3.6 M urea
  increase in stability per monomeric unit: 3.5 kcal/mol
[1]; 1.0 mM ATP, 2.5 M urea, per monomer
  ΔG° of binding of ATP to the native dimer (N2): –3.5 kcal/mol
[1]; 1.0 mM ATP, Table 1 fit
  increase in ΔGI-N° (ΔGATP°) of wild type: 7.0 ± 0.2 kcal/mol and 7.0 kcal/mol
[1]; 1.0 mM ATP, around 3.7 M urea
  maximum fraction of intermediate: 0.12
[1]; 1.0 mM ATP, called insignificant
  effect on ΔGU-I°: 0.6 kcal/mol
[1]; 1.0 mM ATP, fluorescence
  ΔGU-N°: 30.5 ± 0.8 kcal/mol
[1]; 1.0 mM ATP, fluorescence, global fit with no-ATP data, 30 µg/mL dPGM, pH 8.0
  ΔGI-N: 18.5 ± 0.2 kcal/mol
[1]; 2.5 M urea, 1.0 mM ATP, 1 µM dPGM
  effective free energy change, I to N2•L2: –2.4 kcal/mol per monomer
[1]; 2.5 M urea, 1.0 mM ATP, from Table 1 and Eq. 2
  ΔGN-I° for reaction from I to N2•L2: –12.5 kcal/mol
[1]; ligand 1.0 mM
  ΔΔGI-N° = ΔGI-N°(ligand) – ΔGI-N°(no ligand): 7.7 (± 0.2) kcal/mol
[1]; [13]
  ΔGI-N°: 19.3 (± 0.2) kcal/mol
  ΔGU-I: 5.0 (± 0.3) kcal/mol
dPGM R9A [2]
  ΔGATP° = ΔGI-N°(1 mM ATP) - ΔGI-N°(No ATP): 4.2 ± 0.2 kcal/mol
  ΔGI-N°: 16.6 ± 0.2 kcal/mol
  ΔGU-I°: 6.3 ± 0.5 kcal/mol
  ΔΔGATP° = ΔGATP°(variant) – ΔGATP°(WT): –1.4 ± 0.1 kcal/mol
dPGM K99A [3]
  ΔGI-N°: 18.5 ± 0.2 kcal/mol
  ΔGU-I°: 6 ± 1 kcal/mol
  ΔΔGATP° = ΔGATP°(variant) – ΔGATP°(WT): –1.5 ± 0.2 kcal/mol
dPGM R115A [4]
  ΔGATP° = ΔGI-N°(1 mM ATP) - ΔGI-N°(No ATP): 4.8 ± 0.4 kcal/mol
  ΔGI-N°: 19.4 ± 0.3 kcal/mol
  ΔGU-I°: 5 ± 1 kcal/mol
  ΔΔGATP° = ΔGATP°(variant) – ΔGATP°(WT): –1.1 ± 0.2 kcal/mol
dPGM R116A [5]
  ΔGATP° = ΔGI-N°(1 mM ATP) - ΔGI-N°(No ATP): 5.4 ± 0.2 kcal/mol
  ΔGI-N°: 18.1 ± 0.2 kcal/mol
  ΔGU-I°: 5.8 ± 0.4 kcal/mol
  ΔΔGATP° = ΔGATP°(variant) – ΔGATP°(WT): –0.8 ± 0.1 kcal/mol
dPGM K222A [6]
  ΔGATP° = ΔGI-N°(1 mM ATP) - ΔGI-N°(No ATP): 9 ± 2 kcal/mol
dPGM K222A [6]; 1.0 mM ATP
  ΔGI-N°: 21 ± 2 kcal/mol
  ΔGU-I°: 4.4 ± 0.9 kcal/mol
  ΔΔGATP° = ΔGATP°(variant) – ΔGATP°(WT): 1.2 ± 1 kcal/mol
Wild-type dPGM
  Kd: 0.32 ± 0.07 µM
Wild-type dPGM; WT, calculated with Eq. 6 using [ATP] = 1.0 mM
  ΔGbind°: 4.7 ± 0.1 kcal/mol
dPGM R9A [7]
  Kd: 5.5 ± 0.5 µM
dPGM R9A [7]; R9A
  ΔΔGbind° = ΔGbind°(varient) – ΔGbind°(WT): –1.7 ± 0.1 kcal/mol
dPGM R9A [7]; R9A, calculated with Eq. 6 using [ATP] = 1.0 mM
  ΔGbind°: 3.1 ± 0.05 kcal/mol
dPGM K99A [8]
  Kd: 7 ± 2 µM
dPGM K99A [8]; K99A
  ΔΔGbind° = ΔGbind°(varient) – ΔGbind°(WT): –1.8 ± 0.2 kcal/mol
dPGM K99A [8]; K99A, calculated with Eq. 6 using [ATP] = 1.0 mM
  ΔGbind°: 2.9 ± 0.2 kcal/mol
dPGM R115A [9]
  Kd: 7 ± 2 µM
dPGM R115A [9]; R115A
  ΔΔGbind° = ΔGbind°(varient) – ΔGbind°(WT): –1.8 ± 0.2 kcal/mol
dPGM R115A [9]; R115A, calculated with Eq. 6 using [ATP] = 1.0 mM
  ΔGbind°: 2.9 ± 0.2 kcal/mol
dPGM R116A [10]
  Kd: 1.5 ± 0.3 µM
dPGM R116A [10]; R116A
  ΔΔGbind° = ΔGbind°(varient) – ΔGbind°(WT): –0.9 ± 0.2 kcal/mol
dPGM R116A [10]; R116A, calculated with Eq. 6 using [ATP] = 1.0 mM
  ΔGbind°: 3.8 ± 0.1 kcal/mol
dPGM K222A [11]
  Kd: 0.4 ± 0.1 µM
dPGM K222A [11]; K222A
  ΔΔGbind° = ΔGbind°(varient) – ΔGbind°(WT): –0.1 ± 0.2 kcal/mol
dPGM K222A [11]; K222A, calculated with Eq. 6 using [ATP] = 1.0 mM
  ΔGbind°: 4.6 ± 0.1 kcal/mol
[12]; 1.0 mM ATP
  stabilization by pulse proteolysis with purified dPGM: stabilization
S. cerevisiae dPGM
  stabilization in energetics-based proteome screen: stabilizes

## Nc1ncnc2c1ncn2[C@@H]1O[C@H](CO)[C@@H](O)[C@H]1O [Adenosine, adenosine]
[1]; ligand 1.0 mM
  effect on equilibrium unfolding (first unfolding transition): negligible
  ΔΔGI-N° = ΔGI-N°(ligand) – ΔGI-N°(no ligand): 0.09 (± 0.07) kcal/mol
[1]; [13]
  ΔGI-N°: 11.7 (± 0.1) kcal/mol
  ΔGU-I: 5.6 (± 0.2) kcal/mol

## Nc1ncnc2c1ncn2[C@@H]1O[C@H](CO[P@](=O)(O)O[P@](=O)(O)O[P@@](=O)(O)S)[C@@H](O)[C@H]1O [ATPγS]
[12]; E. coli lysate, 2.0 M urea, 1.0 mM ATPγS
  protein remaining intact after pulse proteolysis: a significant population of the protein remained intact

## phosphate
[1]; 50 mM phosphate
  ΔΔGI-N°: 5.9 (± 0.1) kcal/mol
[1]; [14]
  ΔGI-N°: 17.3 (± 0.1) kcal/mol
  ΔGU-I: 5.6 (± 0.3) kcal/mol
[1]; [15]
  mI-N: 2.36 (± 0.03) kcal mol^−1M^−1
  mU-I: 1.82 (± 0.08) kcal mol^−1M^−1
[1]; calculated with Eq. 6, 50 mM phosphate
  Kd: 350 ± 60 µM

## Nc1nc2c(ncn2[C@@H]2O[C@H](COP(=O)(O)OP(=O)(O)OP(=O)(O)O)[C@@H](O)[C@H]2O)c(=O)[nH]1 [GTP, guanosine triphosphate]
[1]
  Kd: 0.4 ± 0.5 µM
[1]; ligand 1.0 mM
  effect on equilibrium unfolding (first unfolding transition): significantly shift the first unfolding transition to higher urea concentrations
  ΔΔGI-N° = ΔGI-N°(ligand) – ΔGI-N°(no ligand): 9.3 (± 0.8) kcal/mol
[1]; [13]
  ΔGI-N°: 20.9 (± 0.8) kcal/mol
  ΔGU-I: 4.3 (± 0.6) kcal/mol

## Nc1ncnc2c1ncn2[C@@H]1O[C@H](COP(=O)(O)OP(=O)(O)O)[C@@H](O)[C@H]1O [ADP, adenosine diphosphate]
[1]
  Kd: 18 ± 3 µM
[1]; ligand 1.0 mM
  effect on equilibrium unfolding (first unfolding transition): significantly shift the first unfolding transition to higher urea concentrations
  ΔΔGI-N° = ΔGI-N°(ligand) – ΔGI-N°(no ligand): 4.8 (± 0.1) kcal/mol
[1]; [13]
  ΔGI-N°: 16.4 (± 0.1) kcal/mol
  ΔGU-I: 5.2 (± 0.2) kcal/mol
